In ChEMBL document CHEMBL1127010, “Synthesis of 3-acetoxy-12-epoxy-25-hydroxy-cholesta-5,7-diene and 2-25-dihydroxyvitamin D3” (1993) one finds EC50 data, which are given here for one compound.

Structures are written as SMILES.

The test system of this assay is HL-60. As to the kind of experiment: Concentration required for induction of HL-60 cell differentiation (ATCC cells) to 50% was determined. The class given is functional, Homo sapiens.

As usually defined, the EC50 is the concentration needed to bring the measured effect to its halfway point. Low values mean a more potent agent, high ones a less potent agent. The compound `C=C1C[C@H](O)[C@H](O)C/C1=C/C=C1\CCCC2(C)C1CCC2[C@H](C)CCCC(C)(C)O` (stereo partly specified) registered an EC50 of 600 nM.
